# Several values for one entry are separate records, joined by “and”; a condition that tells them apart may be missing. Identical values can stand only once.
# How the values were obtained:
# [1] = test system: TNF induced by viable bacteria in RAW 264.7 cells; test: TNF induction in RAW 264.7 cells by intact bacteria / secreted LPS-protein complexes; format: cell-based, murine; settings: for Unit of TNF induced / Unit of TNF induced (% of control): 20 μg of peptide
# Method: After an overnight incubation, the media was aspirated from all the wells. 100 μl of Lipopolysaccharide (LPS) was added at 100 ng/100 μl. CEME or CEMA was added at the desired concentration/100 μl to specified wells. […] The plates were then incubated for six hours at 37° C., 5% CO2. The supernatant was then removed from the wells and stored overnight at 4° C. For those wells in which whole bacteria were added directly to the wells, the supernatant was centrifuged in 0.2 μm filter eppendorf tubes for 5 minutes.
# In intact cell induction experiments, 10^6 E. coli Bort cells induced 11,967-14,805 Units of TNF per ml in RAW cells.
# To examine effects on whole bacterium induction of TNF, bacteria, grown in Luria broth overnight (approximately 1×10^8 /ml) and diluted to […] organisms per ml, and RAW 264.7 cells were each added to separate compartments of a transwell diffusion chamber, which contained a 0.2 μm membrane filter separating the two compartments. Peptides were added, when appropriate, to the bacterium-containing compartment at a final concentration of 20 μg/ml. TNF levels were measured after 6 hours of incubation at 37° C. in 5% CO2. All assays were performed three times with similar results.
# (§1) TNF was measured in cell culture supernatants and mouse serum on the basis of cytoxicity for L929 fibroblast cell. […] TNF activity was expressed in units as the reciprocal of the dilution of TNF that caused 50% cytotoxicity of L929 cells, as computed using the ELISA+program (Meddata, Inc., New York, N.Y.). In our hands one unit of TNF corresponded to 62.5 pg/ml of recombinant murine TNF (Genzyme Corp.).
# In man and animal infections, LPS is probably not released as a purified molecule, but rather in association with other bacterial cell components. To mimic this situation, a model system was employed in which the LPS-protein complexes that are naturally released from bacteria were used as a stimulus to induce TNF production in RAW 264.7 cells. Viable cells of E. coli Bort and 0111:B4 or P. aeruginosa H103 were incubated in a transwell filter unit in which a 0.2 μm membrane filter separated the intact bacteria from the compartment containing the RAW 264.7 cells. […] Addition of 20 μg/ml of peptide to 10^5, 10^6, and 10^7 viable to E. coli 0111:B4 (Table 11) and Bort cells reduced the TNF levels by 90%-96%.
# [2] = test system: LPS-induced TNF in RAW 264.7 cells; test: Preincubation of RAW cells with peptide, wash, and supernatant transfer before LPS; format: cell-based, murine; settings: for depression of TNF induction by aspirated medium containing CEMA: fresh RAW cells
# Method: In order to determine how rapidly CEMA reduced LPS-induced TNF production, E. coli 0111:B4 or Bort LPS was added at time 0 to RAW macrophages. CEMA or Polymyxin B was added at time 0, 30 and 60 minutes. Levels of TNF were measured after 6 hours. […] To confirm that CEMA was acting on LPS rather than directly upon macrophage cell lines, 20 μg of CEMA was added to RAW cells and incubated for 60 minutes prior to aspiration of the medium and washing the cells 3 times with HBSS (Hanks Buffered Salt Solution).
# To ensure that the cationic peptides were interacting with the LPS rather than the cell lines, […], and after incubation at 37° C. in 5% CO2 for 60 minutes, the supernatant was removed and added to a second well of untreated RAW 264.7 cells. Fresh medium was added to the peptide-treated RAW cells and 100 ng/ml of LPS was then added to both the peptide-treated cells and those reconstituted with supernatant, and these wells assayed for TNF production after 6 hours incubation at 37° C. in 5% CO2.
# Both CEME and CEMA were reproducibly able to inhibit the induction, by E. coli 0111:B4 LPS, of TNF secretion by RAW 264.7 cells (Table 10). […] Virtually the same results were obtained with E. coli Bort LPS and in preliminary experiments with P. aeruginosa strain H 103 LPS. […] In contrast the supernatants from these preincubations (which presumably contained the peptides) when added to fresh RAW 264.7 cells, were able to suppress the ability of these cells to induce TNF in response to LPS stimulation, producing only 4451 units per ml;.
# [3] = test system: LPS-induced circulating TNF; test: Circulating TNF response to LPS in galactosamine-sensitized mice; format: in vivo
# Method: With a challenge dose of 10 μg or E. coli 0111:B4 LPS, 100% of control mice (i.e., no cationic peptide) were killed. […] Consistent with its improved ability to bind LPS, CEMA was more protective resulting in 60%, 75%, and 78% survival when given to mice at doses of 50 μg, 100 μg, and 200 μg respectively. […] Thirty minutes later, the mice were sacrificed and the blood was taken and centrifuged to separate the serum which was used in the cell cytotoxic L929 assay. […] Such suppression of TNF levels in the animals injected with Dgal, CEMA, and LPS was maintained for up to 2 hours.
# as §1
# Mice are naturally resistant to LPS. […] Endotoxic shock was induced by intraperitoneal injection of 10 or 20 μg of E. coli 0111:B4 LPS in phosphate-buffered saline (PBS), pH 7.2 into galactosamine-sensitized 8-10 week old female CD-1 mice (Galanos, C., supra; Freudenberg, M. A., Inf. Immun., 51:891, 1986). In experiments involving peptides, 50-200 μg in 100 μl sterile water injected at separate intraperitoneal sites immediately before or after LPS injection. In survival experiments, survival was monitored at 24 to 48 hours post injection. In experiments measuring TNF, blood was withdrawn by cardiac puncture at timed intervals up to 8 hours after the injections and allowed to clot prior to measurement of TNF in the serum.
# To examine if the peptides were exerting their effects in animals by suppressing TNF induction, TNF was followed in response to injection of 10 μg of E. Coli 0111:B4 into galactosamine treated CD-1 mice. […] At the time points shown, blood was taken and TNF measured in the L929 cytotoxicity assay. […]
# [4] = 10^5 viable E. coli 0111:B4 cells
# [5] = 10^6 viable E. coli 0111:B4 cells
# [6] = 10^7 viable E. coli 0111:B4 cells
smiles,measurement,setting,value
CC[C@H](C)[C@H](NC(=O)CNC(=O)[C@@H](NC(=O)[C@H](CCCCN)NC(=O)[C@H](CCCCN)NC(=O)[C@H](Cc1ccccc1)NC(=O)[C@H](CC(C)C)NC(=O)[C@H](CCCCN)NC(=O)[C@H](Cc1c[nH]c2ccccc12)NC(=O)[C@@H](N)CCCCN)[C@@H](C)CC)C(=O)NCC(=O)N[C@@H](C)C(=O)N[C@H](C(=O)N[C@@H](CC(C)C)C(=O)N[C@@H](CCCCN)C(=O)N[C@H](C(=O)N[C@@H](CC(C)C)C(=O)N[C@H](C(=O)N[C@H](C(=O)NCC(=O)N[C@@H](CC(C)C)C(=O)N1CCC[C@H]1C(=O)N[C@@H](C)C(=O)N[C@@H](CC(C)C)C(=O)N[C@@H](CCCCN)C(=O)N[C@@H](CC(C)C)C(=O)N[C@H](C(=O)N[C@@H](CCCCN)C(=O)O)[C@@H](C)O)[C@@H](C)O)[C@@H](C)O)C(C)C)C(C)C [CEMA],reduction in TNF levels,"[1]; 20 μg of CEMA, 10^6 E. coli Bort cells, two independent experiments",96% and 97%
same,reduction of TNF induction,"[1]; 20 μg/ml CEMA, 10^6 viable P. aeruginosa",96%
same,Unit of TNF induced,[1]; [4],552 ± 61 units/ml
same,Unit of TNF induced (% of control),[1]; [4],4.5%
same,Unit of TNF induced,[1]; [5],1892 ± 1370 units/ml
same,Unit of TNF induced (% of control),[1]; [5],6.0%
same,Unit of TNF induced,[1]; [6],4126 ± 3890 units/ml
same,Unit of TNF induced (% of control),[1]; [6],8.5%
same,TNF induction in washed RAW cells,"[2]; 20 μg CEMA preincubated 60 minutes, washed 3 times, then 10 ng or 100 ng of LPS","14,000-20,000 Units of TNF per ml"
same,TNF induction in peptide-preincubated RAW 264.7 cells,"[2]; CEMA 20 μg/ml preincubated 60 minutes, supernatant removed, fresh medium and 100 ng/ml E. coli 0111:B4 LPS",19062 Units per ml
same,depression of TNF induction by aspirated medium containing CEMA,[2]; 10 ng E. coli Bort LPS,98.5%
same,depression of TNF induction by aspirated medium containing CEMA,[2]; 100 ng E. coli Bort LPS,75%
same,TNF induction in fresh RAW 264.7 cells given preincubation supernatants,"[2]; supernatants from CEMA 20 μg/ml preincubations, LPS stimulation",4451 units per ml
same,reduction of serum TNF levels,[3]; 200 μg CEMA injected immediately after 10 μg E. coli 0111:B4 LPS,89%
same,blood levels of TNF,"[3]; 200 μg CEMA with 10 μg LPS and Dgal, at 30 minutes",11-16 U/ml
same,duration of suppression of TNF levels,"[3]; animals injected with Dgal, CEMA, and LPS",up to 2 hours
